For 22 compounds, IC50 results are on record in US20080200454A1, “CARBON-LINKED TETRAHYDRO-PYRAZOLO-PYRIDINE MODULATORS OF CATHEPSIN S” (priority 2007, published 2008).

Molecules are shown by their SMILES. pIC50: −log10 of the molar value.

The target of one test is Recombinant human cathepsin S (CatS) (Homo sapiens, UniProt P25774). Briefly: Recombinant human cathepsin S (CatS) inhibition assay, fluorogenic substrate Z-Valine-Valine-Arginine-AMC.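 Also: Baculovirus-expressed CatS in pH 5.0 sodium acetate buffer with DTT and NaCl, fluorescence read each minute over 20 min, inhibition derived from rate slope.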
Sequence of Recombinant human cathepsin S (CatS) (P25774 115-331): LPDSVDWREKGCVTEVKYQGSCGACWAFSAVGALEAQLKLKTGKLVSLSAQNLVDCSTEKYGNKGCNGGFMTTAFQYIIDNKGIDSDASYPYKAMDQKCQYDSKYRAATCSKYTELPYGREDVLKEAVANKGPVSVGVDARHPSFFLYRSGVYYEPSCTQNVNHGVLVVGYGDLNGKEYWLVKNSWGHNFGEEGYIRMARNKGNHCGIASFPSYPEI
Conditions: not given
For the compound `NC(=O)C(=O)N1CCc2c(c(-c3ccc(Cl)c(C#Cc4ccc(CNCc5ccc(Cl)cc5)cc4)c3)nn2CCCN2C[C@@H]3C[C@H]2CO3)C1` [Example 435, 2-[3-(4-Chloro-3-{[4-({[(4-chlorophenyl)methyl]amino}methyl)phenyl]ethynyl}phenyl)-1-{3-[(1S,4S)-2-oxa-5-azabicyclo[2.2.1]hept-5-yl]propyl}-1,4,6,7-tetrahydro-5H-pyrazolo[4,3-c]pyridin-5-yl]-2-oxoacetamide], the pIC50 (commonly the negative decadic logarithm of the IC50, by convention in mol/L) is 7.10. On to `CS(=O)(=O)N1CCc2c(c(-c3ccc(Cl)c(C#Cc4ccc(CNCc5ccc(Cl)cc5)c(F)c4)c3)nn2CCCN2CCOCC2)C1` [Example 436, 1-[4-({2-Chloro-5-[5-(methylsulfonyl)-1-(3-morpholin-4-ylpropyl)-4,5,6,7-tetrahydro-1H-pyrazolo[4,3-c]pyridin-3-yl]phenyl}ethynyl)-2-fluorophenyl]-N-[(4-chlorophenyl)methyl]methanamine], for which the pIC50 was 6.55. Same read-out and setting: under `CS(=O)(=O)N1CCc2c(c(-c3ccc(Cl)c(C#Cc4ccc(CNCc5ccc(Cl)cc5)cc4)c3)nn2CCCN2CCOCC2C(=O)O)C1` (stereo not shown) [Example 437, 4-{3-[3-(4-Chloro-3-{[4-({[(4-chlorophenyl)methyl]amino}methyl)phenyl]ethynyl}phenyl)-5-(methylsulfonyl)-4,5,6,7-tetrahydro-1H-pyrazolo[4,3-c]pyridin-1-yl]propyl}morpholine-3-carboxylic acid] stands 6.24. Same read-out and setting: under `C[C@H]1COCCN1CCCn1nc(-c2ccc(Cl)c(C#Cc3cccc(CNCc4ccc(Cl)cc4)c3)c2)c2c1CCN(S(C)(=O)=O)C2` [Example 439, 1-[3-({2-Chloro-5-[1-{3-[(3S)-3-methylmorpholin-4-yl]propyl}-5-(methylsulfonyl)-4,5,6,7-tetrahydro-1H-pyrazolo[4,3-c]pyridin-3-yl]phenyl}ethynyl)phenyl]-N-[(4-chlorophenyl)methyl]methanamine] stands 6.49; under `CS(=O)(=O)N1CCc2c(c(-c3ccc(Cl)c(C#Cc4ccc(CN[C@@H]5CCCc6ccccc65)cc4)c3)nn2CCCN2CCOCC2)C1` [Example 444, (1R)—N-{[4-({2-Chloro-5-[5-(methylsulfonyl)-1-(3-morpholin-4-ylpropyl)-4,5,6,7-tetrahydro-1H-pyrazolo[4,3-c]pyridin-3-yl]phenyl}ethynyl)phenyl]methyl}-1,2,3,4-tetrahydronaphthalen-1-amine], 6.68. Still for that read-out and setting: under `CS(=O)(=O)N1CCc2c(c(-c3ccc(Cl)c(C#Cc4ccc(CN[C@@H]5Cc6ccccc6[C@@H]5O)cc4)c3)nn2CCCN2CCOCC2)C1` [Example 445, (1S,2R)-2-({[4-({2-Chloro-5-[5-(methylsulfonyl)-1-(3-morpholin-4-ylpropyl)-4,5,6,7-tetrahydro-1H-pyrazolo[4,3-c]pyridin-3-yl]phenyl}ethynyl)phenyl]methyl}amino)-2,3-dihydro-1H-inden-1-ol] stands 6.70; under `CS(=O)(=O)N1CCc2c(c(-c3ccc(Cl)c(C#Cc4ccc(Cl)cc4)c3)nn2C[C@@H](O)CN2CCC(C3CCNCC3)CC2)C1` [Example 448, (2S)-1-(4,4′-Bipiperidin-1-yl)-3-[3-{4-chloro-3-[(4-chlorophenyl)ethynyl]phenyl}-5-(methylsulfonyl)-4,5,6,7-tetrahydro-1H-pyrazolo[4,3-c]pyridin-1-yl]propan-2-ol], 8.00. As for `NC(=O)C(=O)N1CCc2c(c(-c3ccc(Cl)c(C#Cc4ccc(CNCc5ccc(Cl)cc5)cc4)c3)nn2CCCN2CCCCC2)C1` [Example 449, 2-[3-(4-Chloro-3-{[4-({[(4-chlorophenyl)methyl]amino}methyl)phenyl]ethynyl}phenyl)-1-(3-piperidin-1-ylpropyl)-1,4,6,7-tetrahydro-5H-pyrazolo[4,3-c]pyridin-5-yl]-2-oxoacetamide], the pIC50 was 7.00. As for `NC(=O)C(=O)N1CCc2c(c(-c3ccc(Cl)c(C#Cc4ccc(CNCc5ccc(Cl)cc5)cc4)c3)nn2CCCN2CCC(C(F)(F)F)CC2)C1` [Example 452, 2-[3-(4-Chloro-3-{[4-({[(4-chlorophenyl)methyl]amino}methyl)phenyl]ethynyl}phenyl)-1-{3-[4-(trifluoromethyl)piperidin-1-yl]propyl}-1,4,6,7-tetrahydro-5H-pyrazolo[4,3-c]pyridin-5-yl]-2-oxoacetamide], the pIC50 is 7.00.

The test is the same for the next values; noted with them: CatS IC50.
With `C[C@H]1COCCN1CCCn1nc(-c2ccc(Cl)c(C#Cc3ccc(CNCc4ccco4)cc3)c2)c2c1CCN(S(C)(=O)=O)C2` [Example 432, 1-[4-({2-Chloro-5-[1-{3-[(3S)-3-methylmorpholin-4-yl]propyl}-5-(methylsulfonyl)-4,5,6,7-tetrahydro-1H-pyrazolo[4,3-c]pyridin-3-yl]phenyl}ethynyl)phenyl]-N-(furan-2-ylmethyl)methanamine], the pIC50 is 6.64. Still for that read-out and setting: under `C[C@H]1COCCN1CCCn1nc(-c2ccc(Cl)c(C#Cc3ccc(CNCc4cccs4)cc3)c2)c2c1CCN(S(C)(=O)=O)C2` [Example 433, 1-[4-({2-Chloro-5-[1-{3-[(3S)-3-methylmorpholin-4-yl]propyl}-5-(methylsulfonyl)-4,5,6,7-tetrahydro-1H-pyrazolo[4,3-c]pyridin-3-yl]phenyl}ethynyl)phenyl]-N-(2-thienylmethyl)methanamine] stands 6.62. For the compound `C[C@H]1COCCN1CCCn1nc(-c2ccc(Cl)c(C#Cc3ccc(CNCc4ccsc4)cc3)c2)c2c1CCN(S(C)(=O)=O)C2` [Example 434, 1-[4-({2-Chloro-5-[1-{3-[(3S)-3-methylmorpholin-4-yl]propyl}-5-(methylsulfonyl)-4,5,6,7-tetrahydro-1H-pyrazolo[4,3-c]pyridin-3-yl]phenyl}ethynyl)phenyl]-N-(3-thienylmethyl)methanamine], the pIC50 is 6.70. For `CS(=O)(=O)N1CCc2c(c(-c3ccc(Cl)c(C#Cc4cccc(CNCc5ccc(Cl)cc5)c4)c3)nn2CCCN2CCOCC2)C1` [Example 438, 1-[3-({2-Chloro-5-[5-(methylsulfonyl)-1-(3-morpholin-4-ylpropyl)-4,5,6,7-tetrahydro-1H-pyrazolo[4,3-c]pyridin-3-yl]phenyl}ethynyl)phenyl]-N-[(4-chlorophenyl)methyl]methanamine], the negative-log IC50 (pIC50) was 6.14. On the same count and under the same terms, under `CS(=O)(=O)N1CCc2c(c(-c3ccc(Cl)c(C#Cc4cccc(CNCc5ccc(Cl)cc5)c4)c3)nn2CCCN2C[C@@H]3C[C@H]2CO3)C1` [Example 440, 1-[3-({2-Chloro-5-[5-(methylsulfonyl)-1-{3-[(1S,4S)-2-oxa-5-azabicyclo[2.2.1]hept-5-yl]propyl}-4,5,6,7-tetrahydro-1H-pyrazolo[4,3-c]pyridin-3-yl]phenyl}ethynyl)phenyl]-N-[(4-chlorophenyl)methyl]methanamine] stands 6.41. Regarding `CS(=O)(=O)N1CCc2c(c(-c3ccc(Cl)c(C#Cc4c[nH]cn4)c3)nn2CCCN2CCOCC2)C1` [Example 441, 3-[4-Chloro-3-(1H-imidazol-4-ylethynyl)phenyl]-5-(methylsulfonyl)-1-(3-morpholin-4-ylpropyl)-4,5,6,7-tetrahydro-1H-pyrazolo[4,3-c]pyridine], the negative-log IC50 (pIC50) was 5.51.

As for `CS(=O)(=O)N1CCc2c(c(-c3ccc(Cl)c(C#Cc4ccc(CN5CCc6ccccc6C5)cc4)c3)nn2CCCN2CCOCC2)C1` [Example 442, 2-{[4-({2-Chloro-5-[5-(methylsulfonyl)-1-(3-morpholin-4-ylpropyl)-4,5,6,7-tetrahydro-1H-pyrazolo[4,3-c]pyridin-3-yl]phenyl}ethynyl)phenyl]methyl}-1,2,3,4-tetrahydroisoquinoline], the pIC50 is 6.52. With `CS(=O)(=O)N1CCc2c(c(-c3ccc(Cl)c(C#Cc4ccc(CN5Cc6ccccc6C5)cc4)c3)nn2CCCN2CCOCC2)C1` [Example 443, 3-(4-Chloro-3-{[4-(1,3-dihydro-2H-isoindol-2-ylmethyl)phenyl]ethynyl}phenyl)-5-(methylsulfonyl)-1-(3-morpholin-4-ylpropyl)-4,5,6,7-tetrahydro-1H-pyrazolo[4,3-c]pyridine], the negative-log IC50 (pIC50) is 6.16. `CS(=O)(=O)N1CCc2c(c(-c3ccc(Cl)c(C#Cc4cccc(CNCc5ccc(Cl)cc5)c4)c3)nn2CCCN2CCN(c3ccccc3)CC2)C1` [Example 446, 1-{3-[(2-Chloro-5-{5-(methylsulfonyl)-1-[3-(4-phenylpiperazin-1-yl)propyl]-4,5,6,7-tetrahydro-1H-pyrazolo[4,3-c]pyridin-3-yl}phenyl)ethynyl]phenyl}-N-[(4-chlorophenyl)methyl]methanamine]: the pIC50 was 7.15. The same measure, in the same setting: under `CS(=O)(=O)N1CCc2c(c(-c3ccc(Cl)c(C#Cc4cccc(CNCc5ccc(Cl)cc5)c4)c3)nn2CCCN2CCN(c3ccccn3)CC2)C1` [Example 447, 1-{3-[(2-Chloro-5-{5-(methylsulfonyl)-1-[3-(4-pyridin-2-ylpiperazin-1-yl)propyl]-4,5,6,7-tetrahydro-1H-pyrazolo[4,3-c]pyridin-3-yl}phenyl)ethynyl]phenyl}-N-[(4-chlorophenyl)methyl]methanamine] stands 7.15; under `NC(=O)C(=O)N1CCc2c(c(-c3ccc(Cl)c(C#Cc4ccc(CNCc5ccc(Cl)cc5)cc4)c3)nn2CCCN2CCC(C(N)=O)CC2)C1` [Example 450, 1-(3-{5-[Amino(oxo)acetyl]-3-(4-chloro-3-{[4-({[(4-chlorophenyl)methyl]amino}methyl)phenyl]ethynyl}phenyl)-4,5,6,7-tetrahydro-1H-pyrazolo[4,3-c]pyridin-1-yl}propyl)piperidine-4-carboxamide], 7.15; under `NC(=O)C(=O)N1CCc2c(c(-c3ccc(Cl)c(C#Cc4ccc(CNCc5ccc(Cl)cc5)cc4)c3)nn2CCCN2CCC3(CC2)OCCO3)C1` [Example 451, 2-{3-(4-Chloro-3-{[4-({[(4-chlorophenyl)methyl]amino}methyl)phenyl]ethynyl}phenyl)-1-[3-(1,4-dioxa-8-azaspiro[4.5]dec-8-yl)propyl]-1,4,6,7-tetrahydro-5H-pyrazolo[4,3-c]pyridin-5-yl}-2-oxoacetamide], 7.00. For `NC(=O)N1CCc2c(c(-c3ccc(Cl)c(C#Cc4ccc(CNCc5ccc(Cl)cc5)cc4)c3)nn2CCCN2CCCC2)C1` [Example 453, 3-(4-Chloro-3-{[4-({[(4-chlorophenyl)methyl]amino}methyl)phenyl]ethynyl}phenyl)-1-(3-pyrrolidin-1-ylpropyl)-1,4,6,7-tetrahydro-5H-pyrazolo[4,3-c]pyridine-5-carboxamide], the pIC50 was 6.85.
